# Laboratory results from PMC6407913, “DREADD Agonist 21 Is an Effective Agonist for Muscarinic-Based DREADDs in Vitro and in Vivo” (ACS Pharmacology & Translational Science, 2018).
# Numbering of substitutions follows the chain as printed. Where “and” joins values, the source holds several entries; their conditions need not be identical. Equal entries are not always repeated.
# What was measured:
# [1] = brain and plasma exposure after i.p. administration; type: in vivo, mice
# [2] = target: T1, hM1 (Homo sapiens, UniProt P11229); assay: pERK assay, antagonist mode (shift of ACh curve); type: cell-based; conditions: hM1, CHO cells
# T1 sequence (P11229 1-460): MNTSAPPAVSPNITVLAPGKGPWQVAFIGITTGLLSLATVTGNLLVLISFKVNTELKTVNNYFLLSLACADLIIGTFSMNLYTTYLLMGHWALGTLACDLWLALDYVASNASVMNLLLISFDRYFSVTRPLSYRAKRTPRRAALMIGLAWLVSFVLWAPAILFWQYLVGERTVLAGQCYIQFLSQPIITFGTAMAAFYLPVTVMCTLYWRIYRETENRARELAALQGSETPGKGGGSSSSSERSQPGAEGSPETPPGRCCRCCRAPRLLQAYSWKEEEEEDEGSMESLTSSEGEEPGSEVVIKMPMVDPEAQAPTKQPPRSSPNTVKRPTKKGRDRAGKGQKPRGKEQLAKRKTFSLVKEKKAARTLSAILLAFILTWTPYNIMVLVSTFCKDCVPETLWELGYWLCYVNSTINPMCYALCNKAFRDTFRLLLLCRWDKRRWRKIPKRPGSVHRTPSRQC
# Description: In the absence of C21 ([B] = 0), this equation becomes the standard four-parameter logistic equation for fitting agonist concentration–response data.
# [3] = target: T2, hM1Dq (Homo sapiens, UniProt P11229, A196G/Y106C); assay: whole-cell [3H]NMS competition binding
# T2 sequence (P11229 1-460 Y106C/A196G): T1 sequence (P11229 1-460) with Y106C, A196G
# [4] = brain protein binding (brain homogenate); type: in vitro ADME, mouse
# [5] = target: T3, 318 nonolfactory human GPCRs (Homo sapiens, UniProt Q96AM1); type: cell-based; conditions: MRGPRF; C21 5 µM
# T3 construct: expressed in transfected cells; host or cells: HTLA cells, transient
# T3 sequence (Q96AM1 whole entry): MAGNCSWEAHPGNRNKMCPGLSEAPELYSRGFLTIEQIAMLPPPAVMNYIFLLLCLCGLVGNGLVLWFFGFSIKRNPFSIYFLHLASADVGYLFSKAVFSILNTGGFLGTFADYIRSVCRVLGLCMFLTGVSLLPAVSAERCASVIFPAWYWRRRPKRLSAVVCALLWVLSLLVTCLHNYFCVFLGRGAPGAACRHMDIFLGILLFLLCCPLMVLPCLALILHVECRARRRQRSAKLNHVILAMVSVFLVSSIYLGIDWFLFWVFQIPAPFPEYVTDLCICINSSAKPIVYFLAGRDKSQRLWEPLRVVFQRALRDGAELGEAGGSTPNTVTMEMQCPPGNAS
# [6] = target: T4, 318 nonolfactory human GPCRs (Homo sapiens, UniProt P41587); type: cell-based; conditions: VIPR2; C21 5 µM
# T4 construct: expressed in transfected cells; host or cells: HTLA cells, transient
# T4 sequence (P41587 24-438): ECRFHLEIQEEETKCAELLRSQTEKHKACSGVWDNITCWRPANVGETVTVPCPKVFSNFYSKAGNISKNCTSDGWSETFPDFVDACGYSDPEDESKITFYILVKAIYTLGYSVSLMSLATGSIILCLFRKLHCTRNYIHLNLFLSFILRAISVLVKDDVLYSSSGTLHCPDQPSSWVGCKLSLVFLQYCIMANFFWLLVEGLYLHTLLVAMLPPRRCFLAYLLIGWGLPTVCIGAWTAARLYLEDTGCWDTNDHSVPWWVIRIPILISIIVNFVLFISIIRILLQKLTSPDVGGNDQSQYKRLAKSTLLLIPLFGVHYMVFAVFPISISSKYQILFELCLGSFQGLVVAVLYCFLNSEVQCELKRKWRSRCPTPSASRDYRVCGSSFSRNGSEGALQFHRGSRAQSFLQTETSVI
# [7] = target: T5, 318 nonolfactory human GPCRs (Homo sapiens, UniProt P21452); type: cell-based; conditions: TACR2; C21 5 µM
# T5 construct: expressed in transfected cells; host or cells: HTLA cells, transient
# T5 sequence (P21452 whole entry): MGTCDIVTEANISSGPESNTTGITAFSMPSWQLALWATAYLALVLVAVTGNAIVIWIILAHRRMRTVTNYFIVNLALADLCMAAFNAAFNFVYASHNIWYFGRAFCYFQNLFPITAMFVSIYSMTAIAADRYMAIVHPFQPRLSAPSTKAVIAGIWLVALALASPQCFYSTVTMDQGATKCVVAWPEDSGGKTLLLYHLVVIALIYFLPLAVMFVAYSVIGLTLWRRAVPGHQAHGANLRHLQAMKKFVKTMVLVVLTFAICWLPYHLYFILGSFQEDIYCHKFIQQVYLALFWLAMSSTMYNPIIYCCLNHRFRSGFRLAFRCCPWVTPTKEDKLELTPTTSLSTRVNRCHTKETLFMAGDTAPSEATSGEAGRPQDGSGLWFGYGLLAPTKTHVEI
# [8] = target: T6, 318 nonolfactory human GPCRs (Homo sapiens, UniProt Q13585); type: cell-based; conditions: GPR50; C21 5 µM
# T6 construct: expressed in transfected cells; host or cells: HTLA cells, transient
# T6 sequence (Q13585 whole entry): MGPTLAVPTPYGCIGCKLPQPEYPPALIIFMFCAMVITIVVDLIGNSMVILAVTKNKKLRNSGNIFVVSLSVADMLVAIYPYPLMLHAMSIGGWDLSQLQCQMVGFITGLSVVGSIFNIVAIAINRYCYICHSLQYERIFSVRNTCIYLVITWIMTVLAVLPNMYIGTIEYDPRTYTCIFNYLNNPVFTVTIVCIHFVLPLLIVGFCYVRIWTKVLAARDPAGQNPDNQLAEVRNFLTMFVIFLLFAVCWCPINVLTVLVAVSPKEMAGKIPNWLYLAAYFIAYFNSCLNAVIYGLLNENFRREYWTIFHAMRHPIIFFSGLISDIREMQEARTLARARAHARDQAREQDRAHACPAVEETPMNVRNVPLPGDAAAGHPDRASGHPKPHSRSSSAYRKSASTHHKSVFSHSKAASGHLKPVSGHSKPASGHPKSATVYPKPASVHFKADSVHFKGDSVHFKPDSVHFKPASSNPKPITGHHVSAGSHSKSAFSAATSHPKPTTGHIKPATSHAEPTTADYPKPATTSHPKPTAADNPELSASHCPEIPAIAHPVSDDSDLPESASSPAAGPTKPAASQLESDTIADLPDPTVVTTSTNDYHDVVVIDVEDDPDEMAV
# [9] = target: T7, 318 nonolfactory human GPCRs (Homo sapiens, UniProt Q8NFN8); type: cell-based; conditions: GPR156; C21 5 µM
# T7 construct: expressed in transfected cells; host or cells: HTLA cells, transient
# T7 sequence (Q8NFN8 whole entry): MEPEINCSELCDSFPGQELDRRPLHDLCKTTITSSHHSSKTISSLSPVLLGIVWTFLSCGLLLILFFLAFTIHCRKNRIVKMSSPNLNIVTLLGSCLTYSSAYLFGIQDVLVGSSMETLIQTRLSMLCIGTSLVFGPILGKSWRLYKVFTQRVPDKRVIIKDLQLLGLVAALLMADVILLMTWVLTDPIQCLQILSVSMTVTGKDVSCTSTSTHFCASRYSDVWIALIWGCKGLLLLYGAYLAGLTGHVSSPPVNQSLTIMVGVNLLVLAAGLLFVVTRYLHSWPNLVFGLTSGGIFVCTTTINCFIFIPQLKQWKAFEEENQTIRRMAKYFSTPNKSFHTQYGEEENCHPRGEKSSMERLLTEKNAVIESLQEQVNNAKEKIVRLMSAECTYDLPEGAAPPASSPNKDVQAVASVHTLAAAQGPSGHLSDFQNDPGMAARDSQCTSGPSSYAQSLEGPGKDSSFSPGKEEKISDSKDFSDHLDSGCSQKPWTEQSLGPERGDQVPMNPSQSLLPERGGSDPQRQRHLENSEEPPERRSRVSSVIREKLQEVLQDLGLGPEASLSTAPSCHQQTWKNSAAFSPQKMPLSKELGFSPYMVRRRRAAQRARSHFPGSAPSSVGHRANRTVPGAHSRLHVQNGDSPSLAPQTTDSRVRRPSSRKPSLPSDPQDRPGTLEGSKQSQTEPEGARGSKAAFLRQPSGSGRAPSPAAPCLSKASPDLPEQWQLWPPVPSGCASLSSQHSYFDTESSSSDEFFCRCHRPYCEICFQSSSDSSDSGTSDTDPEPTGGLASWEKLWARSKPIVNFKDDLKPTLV
# [10] = target: T8, 318 nonolfactory human GPCRs (Homo sapiens, UniProt Q8TDT2); type: cell-based; conditions: GPR152; C21 5 µM
# T8 construct: expressed in transfected cells; host or cells: HTLA cells, transient
# T8 sequence (Q8TDT2 whole entry): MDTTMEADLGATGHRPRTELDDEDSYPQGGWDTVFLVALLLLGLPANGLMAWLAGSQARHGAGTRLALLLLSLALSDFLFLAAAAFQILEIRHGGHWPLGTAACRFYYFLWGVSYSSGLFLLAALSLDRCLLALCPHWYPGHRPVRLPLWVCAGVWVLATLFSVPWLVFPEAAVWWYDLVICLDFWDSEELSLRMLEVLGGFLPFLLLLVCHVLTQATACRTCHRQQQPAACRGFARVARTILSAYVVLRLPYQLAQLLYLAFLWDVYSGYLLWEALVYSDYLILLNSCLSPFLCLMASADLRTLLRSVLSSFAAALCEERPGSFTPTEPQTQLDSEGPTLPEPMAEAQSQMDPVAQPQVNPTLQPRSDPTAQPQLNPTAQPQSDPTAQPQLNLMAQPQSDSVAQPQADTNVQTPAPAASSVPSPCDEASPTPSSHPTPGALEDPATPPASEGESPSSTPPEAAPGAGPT
# [11] = target: T9, 318 nonolfactory human GPCRs (Homo sapiens, UniProt P25089); type: cell-based; conditions: FPR3; C21 5 µM
# T9 construct: expressed in transfected cells; host or cells: HTLA cells, transient
# T9 sequence (P25089 whole entry): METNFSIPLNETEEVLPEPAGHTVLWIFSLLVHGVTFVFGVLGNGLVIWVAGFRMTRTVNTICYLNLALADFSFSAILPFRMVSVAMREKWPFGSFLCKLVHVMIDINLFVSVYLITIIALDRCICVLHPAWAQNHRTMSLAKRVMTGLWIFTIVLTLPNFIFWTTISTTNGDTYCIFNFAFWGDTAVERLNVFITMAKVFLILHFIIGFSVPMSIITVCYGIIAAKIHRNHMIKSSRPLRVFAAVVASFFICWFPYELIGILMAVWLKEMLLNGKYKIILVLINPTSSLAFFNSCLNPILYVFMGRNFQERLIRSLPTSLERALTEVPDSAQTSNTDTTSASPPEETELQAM
# [12] = target: T10, 318 nonolfactory human GPCRs (Homo sapiens, UniProt P25024); type: cell-based; conditions: CXCR1; C21 5 µM
# T10 construct: expressed in transfected cells; host or cells: HTLA cells, transient
# T10 sequence (P25024 whole entry): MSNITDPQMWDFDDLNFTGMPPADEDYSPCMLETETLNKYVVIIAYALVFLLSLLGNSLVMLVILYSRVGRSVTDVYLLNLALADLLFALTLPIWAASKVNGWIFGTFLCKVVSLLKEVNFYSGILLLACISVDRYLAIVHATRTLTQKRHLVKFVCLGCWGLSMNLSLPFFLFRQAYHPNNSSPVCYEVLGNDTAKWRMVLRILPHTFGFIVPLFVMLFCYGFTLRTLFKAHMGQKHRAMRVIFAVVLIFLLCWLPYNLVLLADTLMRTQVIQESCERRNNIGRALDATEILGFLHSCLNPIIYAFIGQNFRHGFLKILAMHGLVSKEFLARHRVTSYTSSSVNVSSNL
# [13] = target: T1, hM1; assay: whole-cell [3H]NMS competition binding; conditions: hM1, FlpIn CHO cells, mean (±SEM)
# [14] = target: T11, hM4Di (Homo sapiens, UniProt P08173, A203G/Y113C); assay: inhibition of isoproterenol-stimulated cAMP production; type: cell-based; set-up: expressed in transfected cells; conditions: inhibition of isoproterenol elevated cAMP, mean (±SEM)
# T11 sequence (P08173 1-479 Y113C/A203G): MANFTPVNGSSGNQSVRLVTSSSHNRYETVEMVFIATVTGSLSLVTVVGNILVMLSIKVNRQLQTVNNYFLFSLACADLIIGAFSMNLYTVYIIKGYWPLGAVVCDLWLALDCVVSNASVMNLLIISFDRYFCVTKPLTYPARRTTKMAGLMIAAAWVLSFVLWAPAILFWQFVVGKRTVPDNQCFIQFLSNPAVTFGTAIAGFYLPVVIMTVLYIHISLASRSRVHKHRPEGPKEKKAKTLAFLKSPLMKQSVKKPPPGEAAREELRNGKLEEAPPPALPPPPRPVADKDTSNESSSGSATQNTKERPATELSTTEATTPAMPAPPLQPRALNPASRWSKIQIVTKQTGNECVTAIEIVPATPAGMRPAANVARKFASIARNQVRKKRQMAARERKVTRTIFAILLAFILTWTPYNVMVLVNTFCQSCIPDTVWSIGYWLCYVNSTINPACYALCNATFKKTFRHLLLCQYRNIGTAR
# [15] = target: T1, hM1; assay: IP-One accumulation assay; type: cell-based; conditions: wildtype hM1
# [16] = tested on: hM3Dq-expressing lateral hypothalamic vGAT neurons; assay: recordings from lateral hypothalamic vGAT neurons; type: cell-based
# [17] = target: T1, hM1; assay: ERK1/2 phosphorylation (pERK1/2) assay; type: cell-based; conditions: wildtype hM1
# [18] = tested on: hM3Dq expressed in ARC AgRP neurons; assay: food intake, hM3Dq in ARC AgRP neurons (Agrp-ires-Cre mice)
# [19] = i.p. 0.1, 1 and 10 mg/kg, 30 min after administration
structure (smiles),measurement,setting,value
"c1ccc2c(c1)N=C(N1CCNCC1)c1ccccc1N2 [C21, 11-(1-piperazinyl)-5H-dibenzo[b,e][1,4]diazepine]","effective free concentration at the peak, brain",[1]; 5 mg/kg i.p.,28 nM
same,"effective free concentration at the peak, plasma",[1]; 5 mg/kg i.p.,~54 nM
same,brain level reached,"[1]; 5 mg/kg i.p., time course",579 ng/mL and 2 μM
same,peak plasma level,"[1]; 5 mg/kg i.p., time course",1150 ng/mL and 4.12 μM
same,calculated free brain concentration,"[1]; dose 0.3 mg/kg, mice",~1.7 nM
same,calculated free concentration,"[1]; dose 3 mg/kg, mice",~17 nM
same,brain and plasma levels,[1]; [19],measurable brain and plasma levels
same,metabolism to clozapine,[1]; [19],no evidence of metabolism to clozapine
same,"antagonist activity (shift of acetylcholine curve, pERK)",[2],weak functional antagonism
same,Ki,[3],63.1 nM
same,higher binding affinity at hM1Dq than at wildtype hM1,[3]; hM1Dq vs hM1,> 10 fold
same,unbound in brain,[4]; brain,4.9%
same,fraction unbound,"[4]; mouse, brain homogenate",0.05
same,FOLD OVER BASAL,[5],1.4 fold and 1.3 fold and 1 fold and 0.7 fold
same,FOLD OVER BASAL,[6],0.6 fold and 0.8 fold and 0.9 fold
same,FOLD OVER BASAL,[7],0.7 fold and 0.9 fold and 0.6 fold and 1.1 fold
same,FOLD OVER BASAL,[8],0.6 fold and 0.7 fold and 0.5 fold and 0.9 fold
same,FOLD OVER BASAL,[9],1.1 fold and 0.9 fold and 1.4 fold
same,FOLD OVER BASAL,[10],0.5 fold and 0.7 fold and 0.6 fold
same,FOLD OVER BASAL,[11],1.2 fold and 0.9 fold and 1.1 fold and 1 fold
same,FOLD OVER BASAL,[12],0.6 fold and 1 fold and 0.8 fold and 1.1 fold
same,Ki,[13],1070 nM
same,EC50,[14],17.8 nM
same,agonist activity in IP1 assay,[15],no agonist activity
same,depolarization of neurons,[16],depolarization
same,agonist activity in pERK1/2 assay,[17],no agonist activity
same,"food intake, light cycle, sated mice","[18]; AgRP-ires-Cre mice with AAV-DIO-hM3Dq-mCherry, i.p.",dose-dependently promoted food consumption at comparable levels to CNO
same,food intake in control mice,[18]; wildtype (non-Cre-expressing) littermates injected with AAV-DIO-hM3Dq-mCherry,neither C21 nor CNO affected feeding behavior
